Test systems include ACHN renal; A549 NSCLC; SF-295 CNS; UACC-257 melanoma; TK-10 renal; CCRF-CEM leukemia; NCI-H23 lung; COLO 205 colon.
Holding throughout (experiment): NCI-60 cell line screen, 48 h

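Step 1: Grow cells in 96-well plates. Step 2: Expose to compound for 48 hours at 5 concentrations. Step 3: Interpolate endpoints linearly; if unreached, use highest concentration. Definition used: TGI = concentration required for complete inhibition of growth.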

As to `CC(=O)Nc1ccc(/C=c2\sc3nnc(/C=C/c4ccccc4)n3c2=O)cc1`, the TGI in the test on ACHN renal, in the test on A549 NSCLC, with SF-295 CNS, with UACC-257 melanoma, in the test with TK-10 renal and in the test with CCRF-CEM leukemia was more than 50 µM in each case. Moreover, the TGI with NCI-H23 lung and with COLO 205 colon was more than 50 µM in each case.
Turning to `COc1ccc(-c2c(N)[n+]([O-])c3cc(C)c(C)cc3[n+]2[O-])cc1OC`, the TGI with ACHN renal, in the test with A549 NSCLC, in the test on SF-295 CNS, with UACC-257 melanoma, with TK-10 renal and with CCRF-CEM leukemia was more than 100 µM each time. The TGI in the test with NCI-H23 lung was more than 100 µM; in the test on COLO 205 colon it was 50.3 µM.
Consider `CC(NC1CCC[C@H]1O)c1ccccc1` (mixture of isomers), for which the TGI in the test with ACHN renal, with A549 NSCLC, with SF-295 CNS, in the test with UACC-257 melanoma, in the test on TK-10 renal and in the test on CCRF-CEM leukemia was more than 100 µM in each case. The TGI in the test with NCI-H23 lung and in the test on COLO 205 colon was more than 100 µM each time.
Consider `COc1cc(C2C(C(=O)O)=C(C)Oc3cc4c(cc32)OCO4)cc(OC)c1OC` (stereo not drawn), for which the TGI in the test with ACHN renal is more than 100 µM; in the test on A549 NSCLC it was more than 100 µM; with SF-295 CNS it was 59.5 µM; in the test with UACC-257 melanoma it was more than 100 µM; in the test on TK-10 renal, more than 100 µM; in the test on CCRF-CEM leukemia, more than 100 µM. Further, the TGI with NCI-H23 lung was more than 100 µM; with COLO 205 colon it was 60.6 µM.
On to `CN(C)CC1(C)CC/C(=C\c2ccc3c(c2)OCO3)C1=O` (stereo not drawn), for which the TGI with ACHN renal, in the test with A549 NSCLC, in the test with SF-295 CNS, in the test with UACC-257 melanoma, in the test with TK-10 renal and in the test with CCRF-CEM leukemia was more than 100 µM throughout. Also, the TGI in the test with NCI-H23 lung and in the test with COLO 205 colon was more than 100 µM each time.
On to `CCCCCCCCCCCCCCCCCC(=O)NCCCNCCCNC(=O)CCCCCCCCCCCCCCCCC`, for which the TGI in the test with ACHN renal, in the test with A549 NSCLC, in the test on SF-295 CNS, in the test on UACC-257 melanoma, in the test on TK-10 renal and in the test on CCRF-CEM leukemia was more than 100 µM throughout. Besides, the TGI in the test on NCI-H23 lung and in the test with COLO 205 colon was more than 100 µM throughout.
With `Nc1nc(N)c(-c2ccccc2)c(C(=O)Nc2ccc(Cl)c(Cl)c2)n1`, the TGI in the test on ACHN renal, with A549 NSCLC, in the test with SF-295 CNS, in the test on UACC-257 melanoma, in the test on TK-10 renal and with NCI-H23 lung was more than 100 µM throughout.
Turning to `COCCN1C2=CCCCC2=Nc2c(N)nc(N)nc21`, the TGI with ACHN renal, with A549 NSCLC, in the test with SF-295 CNS, with UACC-257 melanoma, in the test with TK-10 renal and in the test on CCRF-CEM leukemia was more than 100 µM throughout. Further, the TGI in the test on NCI-H23 lung and with COLO 205 colon was more than 100 µM each time.
With `CC1CC2C3CC(F)C4=CC(=O)C=CC4(C)C3(F)C(O)CC2(C)C1(O)C(=O)CO` (stereo not drawn), the TGI with ACHN renal, in the test with A549 NSCLC, in the test with SF-295 CNS, in the test on UACC-257 melanoma, in the test with TK-10 renal and in the test on CCRF-CEM leukemia was more than 100 µM throughout. Further, the TGI with NCI-H23 lung and with COLO 205 colon was more than 100 µM each time.
As for `COC(=O)C(C(=O)C(=O)Nc1ccccc1OC)c1csc(-n2nc(-c3ccccc3)cc2-c2ccccc2)n1` (stereo not drawn), the TGI in the test on ACHN renal, in the test with A549 NSCLC, in the test with UACC-257 melanoma, in the test with TK-10 renal, in the test on CCRF-CEM leukemia and in the test with NCI-H23 lung was more than 100 µM throughout. In the test with COLO 205 colon, this compound displayed a TGI of more than 100 µM.
`CN/N=C(\C)CC(=O)Nc1cccc(Cl)c1C`: the TGI with ACHN renal, in the test with A549 NSCLC, with SF-295 CNS, with UACC-257 melanoma, with TK-10 renal and in the test with CCRF-CEM leukemia was more than 100 µM in each case. The TGI in the test on NCI-H23 lung and in the test with COLO 205 colon was more than 100 µM throughout.
For `COc1cc2c(cc1OC)-c1c(cc(OC)c(OC)c1OC)C2=O`, the TGI with ACHN renal, in the test on A549 NSCLC, with SF-295 CNS, with UACC-257 melanoma, with TK-10 renal and with CCRF-CEM leukemia was more than 100 µM throughout. For the same compound, the TGI in the test on NCI-H23 lung and in the test with COLO 205 colon was more than 100 µM throughout.
In the case of `CC1=CCC2(C#N)CCC1C2=O` (stereo not drawn), the TGI in the test with ACHN renal, with A549 NSCLC, in the test on SF-295 CNS, in the test on UACC-257 melanoma, with TK-10 renal and in the test with CCRF-CEM leukemia was more than 100 µM each time. Also, the TGI with NCI-H23 lung and with COLO 205 colon was more than 100 µM throughout.
In the case of `C/C=C/C=C/[C@H]1Cc2cc(O)cc(O)c2O1`, the TGI in the test on ACHN renal, in the test on A549 NSCLC, with SF-295 CNS, in the test on UACC-257 melanoma, in the test with TK-10 renal and with CCRF-CEM leukemia was more than 100 µM in each case. Further, the TGI with NCI-H23 lung and with COLO 205 colon was more than 100 µM throughout.
As to `CSc1s[s+]c(SC)c1[O-]`, the TGI in the test with ACHN renal is more than 100 µM; in the test on A549 NSCLC, more than 100 µM; with SF-295 CNS, more than 100 µM; in the test on UACC-257 melanoma, 50.2 µM; in the test with TK-10 renal, more than 100 µM; in the test on CCRF-CEM leukemia it was more than 100 µM. Further, the TGI stood at 50.4 µM in the test on NCI-H23 lung and 68.8 µM in the test with COLO 205 colon.
Regarding `O=C(O)C1Cc2nc[nH]c2CN1` (stereo not drawn), the TGI with ACHN renal, in the test on A549 NSCLC, in the test on SF-295 CNS, with UACC-257 melanoma, in the test on TK-10 renal and in the test on CCRF-CEM leukemia was more than 100 µM throughout. The TGI in the test with NCI-H23 lung and with COLO 205 colon was more than 100 µM in each case.
Turning to `C=C(CO)CC(O)c1ccccc1` (stereo not drawn), the TGI in the test with ACHN renal, with A549 NSCLC, in the test on SF-295 CNS, in the test on TK-10 renal, in the test with CCRF-CEM leukemia and in the test on NCI-H23 lung was more than 100 µM in each case. This compound also registered a TGI with COLO 205 colon of more than 100 µM.
With `O=C1OC(=O)C2C3CCC(O3)C12` (stereo not drawn), the TGI with ACHN renal, with A549 NSCLC, in the test on SF-295 CNS, in the test on UACC-257 melanoma, in the test on TK-10 renal and in the test with CCRF-CEM leukemia was more than 100 µM in each case. For the same compound, the TGI with NCI-H23 lung and with COLO 205 colon was more than 100 µM throughout.
Turning to `Cc1ccccc1NC(=O)C(=O)Cc1nc2ccccc2s1`, the TGI with ACHN renal, in the test on A549 NSCLC, in the test on SF-295 CNS, with UACC-257 melanoma, in the test with TK-10 renal and in the test with CCRF-CEM leukemia was more than 100 µM throughout. Further, the TGI with NCI-H23 lung and in the test with COLO 205 colon was more than 100 µM throughout.
On to `Cc1cccc(NC(=O)CC2C(=O)Nc3ccccc3S2(=O)=O)c1C` (stereo not drawn), for which the TGI in the test on ACHN renal is 70.3 µM; in the test on A549 NSCLC, more than 100 µM; with SF-295 CNS, more than 100 µM; in the test on UACC-257 melanoma, more than 100 µM; in the test on TK-10 renal, 79.5 µM; in the test with NCI-H23 lung, 33.7 µM. Moreover, the TGI with COLO 205 colon is more than 100 µM.
Turning to `Oc1cccc(C2SCc3nc4ccccc4n32)c1` (stereo not drawn), the TGI in the test on ACHN renal, with A549 NSCLC, in the test on SF-295 CNS, with UACC-257 melanoma, in the test on TK-10 renal and in the test with CCRF-CEM leukemia was more than 100 µM in each case. For the same compound, the TGI in the test on NCI-H23 lung and in the test with COLO 205 colon was more than 100 µM in each case.
`C=C(C)C1CC[C@]2(C(=O)O)CCC3(C)[C@H](CCC4[C@@]5(C)CC[C@H](OC6OC(CO)C(O)C6OC6OC(C)C(O)C(O)C6O)[C@@](C)(CO)C5CC[C@]43C)C12` (stereo partly drawn): the TGI with ACHN renal, in the test on A549 NSCLC, in the test with SF-295 CNS, in the test with TK-10 renal, in the test with CCRF-CEM leukemia and with NCI-H23 lung was more than 100 µM in each case. This compound also returned a TGI in the test with COLO 205 colon of more than 100 µM.
On to `CC(C)OCN1COCN=C1NC#N`, for which the TGI in the test with ACHN renal, with A549 NSCLC, in the test with SF-295 CNS, with UACC-257 melanoma, in the test on TK-10 renal and in the test on NCI-H23 lung was more than 100 µM each time. In the test on COLO 205 colon, this compound displayed a TGI of 47.9 µM.
`O=C(O)/C(O)=C1/C=C(c2ccccc2)c2ccccc21`: the TGI in the test with ACHN renal came to 94.5 µM; in the test with A549 NSCLC, 71.4 µM; in the test with SF-295 CNS, 32.9 µM; with UACC-257 melanoma, 48.1 µM; in the test on TK-10 renal, 79.8 µM; with CCRF-CEM leukemia, 46.6 µM. The compound further came in with a TGI in the test on COLO 205 colon of 31.9 µM.
In the case of `N/C(=N\C(=S)N1CCCCC1)N1CCCCC1`, the TGI in the test with ACHN renal, with A549 NSCLC, in the test on SF-295 CNS, in the test on UACC-257 melanoma, in the test with TK-10 renal and with CCRF-CEM leukemia was more than 100 µM in each case. The compound also gave a TGI in the test with NCI-H23 lung of more than 100 µM.
With `CCCCCN(CCCCC)C(=O)[C@@H](CCC(=O)OCc1ccccc1)NC(=O)c1cc2ccccc2[nH]1`, the TGI with ACHN renal, in the test on A549 NSCLC, with SF-295 CNS, in the test on UACC-257 melanoma, with CCRF-CEM leukemia and with NCI-H23 lung was more than 100 µM in each case. Further, the TGI with COLO 205 colon was more than 100 µM.

The record behind these values is PubChem BioAssay (NCI).
